Data as given in patent US20240342348A1, “MEDICAL DEVICES INCLUDING THERAPEUTIC COATINGS FOR LOCAL DELIVERY OF A DIRECT ANTICOAGULANT” (Boston Scientific Scimed, Inc., priority 2023, published 2024).

Experiments:
[1] = crystalline drug; cited from earlier work
PTS = settings: oral; cited from earlier work
[2] = Solubility of crystalline drug in water; assay type: physicochemical

water solubility relative to paclitaxel and everolimus [2]: approximately 10 times
Structure (SMILES): O=C(NC[C@H]1CN(c2ccc(N3CCOCC3=O)cc2)C(=O)O1)c1ccc(Cl)s1 [rivaroxaban, (S)-5-Chloro-N-((2-oxo-3-(4-(3-oxomorpholino)phenyl)oxazolidin-5-yl)methyl)thiophene-2-carboxamide]
solubility in water [1]: about 3 μg drug per mL water | risk of PTS (PTS): significantly reduces the risk of PTS
